Test system: Jurkat cell migration across TNFα-stimulated HUVEC
Assay: Jurkat transmigration across TNFα-stimulated HUVEC monolayer
Type: cell-based, human
Details: at 24 h; 1 mg/mL of antagonist; Figure 2B,C
Protocol: Figure 2 Inhibitory effects of visabron c (4–4) on adhesion (A) and transmigration (B, C) of Jurkat cells through the monolayer of TNFα-activated HUVEC. (A) HUVEC were cultured on 96 well plates to 90% confluence in EGM-2 complete media. TNF-α (10 ng/mL) was added to each well for 16 h. Jurkat cells were labeled with calcein-AM ([…]) by 1 h incubation at 37 °C. After three washes, Jurkat cells (1 × 10^5 cells per mL) were mixed with appropriate concentrations of visabron or 10 μM visabres (inset) in EGM-2 media without FBS and supplements (growth factors) and incubated for 15 min at room temperature. […] Cell cultures extracts were measured using the fluorescence plate reader. […] Chambers were incubated at 37 °C, and measurement of fluorescence was performed at the indicated time points using a fluorescence plate reader with a set up bottom measurement option and using FITC filters. […]
trans-Endothelial leukocyte migration was assessed as follows: HUVEC cells were plated onto collagen type IV (5 μg/mL) coated polycarbonate inserts (Transwell, Costar, Cambridge, MA; diameter, 6.5 mm; pore size, 8 μm for a 24-well plate) in serum-containing endothelial cell growth medium and allowed to grow to confluence over 72 h. […] The medium and all washes were pooled, and the fluorescence in each well was quantified with a SPECTRAFluor Plus plate reader at λex = 485 nm and λem = 530 nm. […]

Substance: natalizumab: clinical-grade monoclonal antibody anti-α4β1 produced by Biogen Co. [reference compound]
- Inhibition of Jurkat migration across TNFα-stimulated HUVEC: similar
